Test results published in publication PMC5513037, “Examining the influence of specificity ligands and ATP-competitive ligands on the overall effectiveness of bivalent kinase inhibitors” (Proteome Science, 2017).

Tests used:
WEE1 = biological target: T1, WEE1 (Homo sapiens, UniProt P30291); assay: KAM-matrix competition in K562 lysate; assay type: binding
T1 construct: endogenous in cells; host or cells: K562
Experimental: (§1) Supplement 12953_2017_125_MOESM1_ESM.zip/MS_Supp Info.xlsx, sheet "KAM" | column: 10 uM KAM; 1 uM KAM; 0.1 uM KAM; 0.01 uM KAM; 0.001 uM KAM; RB50

MASTL = biological target: T2, MASTL (Homo sapiens, UniProt Q96GX5); assay: KAM-matrix competition in K562 lysate; assay type: binding
T2 construct: endogenous in cells; host or cells: K562 cell lysate
T2 sequence (Q96GX5 1-879): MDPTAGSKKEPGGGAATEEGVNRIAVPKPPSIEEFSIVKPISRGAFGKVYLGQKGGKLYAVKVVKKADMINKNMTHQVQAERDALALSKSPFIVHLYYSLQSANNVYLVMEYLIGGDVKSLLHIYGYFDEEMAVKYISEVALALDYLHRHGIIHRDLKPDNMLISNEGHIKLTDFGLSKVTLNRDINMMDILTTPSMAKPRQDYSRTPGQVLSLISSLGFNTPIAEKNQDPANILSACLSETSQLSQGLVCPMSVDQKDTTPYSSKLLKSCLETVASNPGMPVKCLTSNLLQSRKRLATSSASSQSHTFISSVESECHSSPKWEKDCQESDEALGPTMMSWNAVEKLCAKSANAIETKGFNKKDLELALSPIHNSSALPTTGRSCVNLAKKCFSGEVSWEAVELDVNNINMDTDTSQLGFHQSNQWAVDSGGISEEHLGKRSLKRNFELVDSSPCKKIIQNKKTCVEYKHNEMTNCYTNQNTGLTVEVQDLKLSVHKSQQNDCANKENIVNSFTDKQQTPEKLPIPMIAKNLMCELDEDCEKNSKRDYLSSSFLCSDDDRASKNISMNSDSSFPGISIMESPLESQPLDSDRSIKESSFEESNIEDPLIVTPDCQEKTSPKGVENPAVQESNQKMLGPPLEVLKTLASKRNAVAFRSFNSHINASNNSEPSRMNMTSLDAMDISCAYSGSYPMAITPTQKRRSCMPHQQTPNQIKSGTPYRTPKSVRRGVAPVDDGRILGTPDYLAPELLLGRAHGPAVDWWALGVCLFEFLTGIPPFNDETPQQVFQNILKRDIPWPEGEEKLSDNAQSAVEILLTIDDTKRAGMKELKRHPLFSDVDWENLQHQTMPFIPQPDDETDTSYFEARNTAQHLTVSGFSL
Experimental: as §1

TAOK3 = biological target: T3, TAOK3 (Homo sapiens, UniProt Q9H2K8); assay: KAM-matrix competition in K562 lysate; assay type: binding
T3 construct: endogenous in cells; host or cells: K562
T3 sequence (Q9H2K8 1-898): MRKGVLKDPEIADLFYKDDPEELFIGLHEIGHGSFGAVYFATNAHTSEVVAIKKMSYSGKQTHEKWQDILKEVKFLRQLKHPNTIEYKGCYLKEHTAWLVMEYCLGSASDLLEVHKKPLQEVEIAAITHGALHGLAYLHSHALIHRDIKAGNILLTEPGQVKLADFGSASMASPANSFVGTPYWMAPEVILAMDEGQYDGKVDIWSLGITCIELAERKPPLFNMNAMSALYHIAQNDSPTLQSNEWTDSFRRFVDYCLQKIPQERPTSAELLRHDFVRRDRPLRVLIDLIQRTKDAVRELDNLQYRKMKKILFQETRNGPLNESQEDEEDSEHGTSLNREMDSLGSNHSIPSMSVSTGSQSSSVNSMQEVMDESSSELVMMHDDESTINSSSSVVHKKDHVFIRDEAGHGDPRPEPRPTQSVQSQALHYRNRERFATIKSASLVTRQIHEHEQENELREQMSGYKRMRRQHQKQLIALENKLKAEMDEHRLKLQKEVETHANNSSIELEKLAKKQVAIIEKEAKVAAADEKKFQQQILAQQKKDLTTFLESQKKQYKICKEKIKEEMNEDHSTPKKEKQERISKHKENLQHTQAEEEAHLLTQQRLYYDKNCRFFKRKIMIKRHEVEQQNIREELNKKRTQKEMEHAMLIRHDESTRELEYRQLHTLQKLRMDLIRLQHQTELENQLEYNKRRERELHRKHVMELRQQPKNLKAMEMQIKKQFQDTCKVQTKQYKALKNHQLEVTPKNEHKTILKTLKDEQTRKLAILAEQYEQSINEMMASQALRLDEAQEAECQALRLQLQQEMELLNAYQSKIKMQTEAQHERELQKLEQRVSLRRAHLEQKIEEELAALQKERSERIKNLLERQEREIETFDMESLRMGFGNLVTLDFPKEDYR
Experimental: as §1

TNK1 = biological target: T4, TNK1 (Homo sapiens, UniProt Q13470); assay: KAM-matrix competition in K562 lysate; assay type: binding
T4 construct: endogenous in cells; host or cells: K562
T4 sequence (Q13470 1-666): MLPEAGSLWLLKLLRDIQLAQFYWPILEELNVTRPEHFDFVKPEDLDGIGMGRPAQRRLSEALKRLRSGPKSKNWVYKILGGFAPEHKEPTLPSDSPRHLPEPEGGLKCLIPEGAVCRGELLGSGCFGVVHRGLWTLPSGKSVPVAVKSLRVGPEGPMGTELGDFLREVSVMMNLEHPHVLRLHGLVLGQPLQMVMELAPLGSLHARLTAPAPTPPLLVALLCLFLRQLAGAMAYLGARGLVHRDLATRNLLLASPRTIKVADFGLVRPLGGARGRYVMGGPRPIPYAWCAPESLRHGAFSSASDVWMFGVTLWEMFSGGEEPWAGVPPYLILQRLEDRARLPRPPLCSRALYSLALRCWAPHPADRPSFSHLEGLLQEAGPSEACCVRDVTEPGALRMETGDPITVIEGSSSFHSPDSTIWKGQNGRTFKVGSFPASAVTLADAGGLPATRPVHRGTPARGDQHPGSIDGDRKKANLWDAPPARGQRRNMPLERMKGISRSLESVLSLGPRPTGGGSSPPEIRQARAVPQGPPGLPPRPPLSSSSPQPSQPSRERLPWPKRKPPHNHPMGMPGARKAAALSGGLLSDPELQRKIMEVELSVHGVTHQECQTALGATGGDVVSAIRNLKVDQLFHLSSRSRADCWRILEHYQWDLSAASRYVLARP
Experimental: as §1

[1] = KAM-matrix competition in K562 lysate; assay type: binding, human; settings: read-out: RB50 (the source's name)
Experimental: as §1

[2] = read-out: RB50 (the source's name)

T1 sequence (P30291 whole entry): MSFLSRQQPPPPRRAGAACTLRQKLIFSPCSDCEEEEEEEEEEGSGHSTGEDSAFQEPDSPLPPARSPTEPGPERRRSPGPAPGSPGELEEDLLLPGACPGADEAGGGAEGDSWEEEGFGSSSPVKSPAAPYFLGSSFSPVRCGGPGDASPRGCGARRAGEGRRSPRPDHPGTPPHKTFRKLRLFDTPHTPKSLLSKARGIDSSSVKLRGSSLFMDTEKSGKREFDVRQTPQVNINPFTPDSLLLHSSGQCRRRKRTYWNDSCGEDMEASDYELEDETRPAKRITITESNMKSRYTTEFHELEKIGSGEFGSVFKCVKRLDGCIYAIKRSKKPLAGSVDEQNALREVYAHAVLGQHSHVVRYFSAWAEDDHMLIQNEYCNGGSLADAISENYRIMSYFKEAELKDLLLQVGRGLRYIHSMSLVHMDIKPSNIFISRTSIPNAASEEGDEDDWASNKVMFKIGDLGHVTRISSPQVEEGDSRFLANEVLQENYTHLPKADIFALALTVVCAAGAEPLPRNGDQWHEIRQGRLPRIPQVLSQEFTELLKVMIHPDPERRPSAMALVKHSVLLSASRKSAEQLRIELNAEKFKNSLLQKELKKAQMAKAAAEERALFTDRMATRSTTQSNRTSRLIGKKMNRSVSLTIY

N#CCc1ccc(Nc2nc(NCCCN)cc(Nc3cc(C4CC4)[nH]n3)n2)cc1 [KAM]
median Log10 fold change (WEE1; 0.001 uM KAM): -0.01698 | median Log10 fold change (WEE1; 0.01 uM KAM): -0.006292 | median Log10 fold change (WEE1; 0.1 uM KAM): -0.1327 | median Log10 fold change (WEE1; 1 uM KAM): -0.2838 | median Log10 fold change (WEE1; 10 uM KAM): -0.4489 | IC50 (WEE1; [2]): 1320 nM | median Log10 fold change (MASTL; 0.001 uM KAM): 0.009734 | median Log10 fold change (MASTL; 0.01 uM KAM): -0.004391 | median Log10 fold change (MASTL; 0.1 uM KAM): -0.2197 | median Log10 fold change (MASTL; 1 uM KAM): -0.3171 | median Log10 fold change (MASTL; 10 uM KAM): -0.3645 | IC50 (MASTL; [2]): 948 nM | median Log10 fold change (TAOK3; 0.001 uM KAM): -0.0153 | median Log10 fold change (TAOK3; 0.01 uM KAM): 0.005812 | median Log10 fold change (TAOK3; 0.1 uM KAM): -0.1317 | median Log10 fold change (TAOK3; 1 uM KAM): -0.2502 | median Log10 fold change (TAOK3; 10 uM KAM): -0.3407 | IC50 (TAOK3; [2]): 2690 nM | median Log10 fold change (TNK1; 0.001 uM KAM): -0.003814 | median Log10 fold change (TNK1; 0.01 uM KAM): -0.02527 | median Log10 fold change (TNK1; 0.1 uM KAM): -0.2865 | median Log10 fold change (TNK1; 1 uM KAM): -0.4389 | median Log10 fold change (TNK1; 10 uM KAM): -0.4693 | IC50 (TNK1; [2]): 199 nM | IC50 [1]: 435 nM
